# From patent publication US20150017636A1, “Detection and Monitoring of Macrocyclic Lactone Resistance in Nematodes” (priority 2013, published 2015)
# Where two headings read alike, the source gives them in different places.
# How the values were obtained:
# C. elegans IVR10 strain = assay: Rescue of Dyf7 gene in IVR10: ivermectin sensitivity of transgenic worms on NGM plates; type: in vivo, Caenorhabditis elegans; details: Dyf7 ttx 1 and Dyf7 ttx 2 strains (IVR10 with wildtype Dyf7 transgene), 6 ng/mL ivermectin, plated as eggs, scored at two days
# Description: FIG. 2 illustrates the rescue of Dyf7 gene in C. elegans IVR10 strain. Effect of Dyf7 rescued (strains Dyf7 ttx 1 and Dyf7 ttx 2) on ivermectin sensitivity. Strains “ttx ctrl 1” and “ttx ctrl 2” contain only the ttx-3:GFP transgenic marker. Results are shown as the percentage of growth of transgenic nematodes (as measured by GFP expression) in function of the type of transgenic nematode and treatment.
# The wild-type Bristol N2 C. elegans strain was cultured in nematode growth medium (NGM) with OP50 Escherichia coli under standard conditions (Brenner, 1974). The IVR6 and IVR10 resistant strains to ivermectin were derived from Bristol N2, by successive increasing concentrations of ivermectin (James and Davey, 2009). […]
# Genomic DNA extracted from C. elegans C43C3 cosmid (provided by the Sanger Institute, UK) was used to amplify the Dyf7 gene using the primers Dyf7-CeB-sense-5′-[…]-3′ (SEQ ID NO: 3) and Dyf7-CeB-antisense-5′-CTCATTTCTGGTCAAACG-3′ (SEQ ID NO: 4). […] The worms were separated into transgenic and non-transgenic based on GFP expression (green channel) and then each population scored for resistance phenotype.
# To determine if the Dyf7 rescuing fragment rescues the ivermectin-sensitivity phenotype of IVR10, each strain was plated, as eggs, onto NGM plates containing 6 ng/mL ivermectin and DMSO control plates. At two days, the L4 and adult worms were scored for presence of the transgene. […]
# Haemonchus contortus = details: cited from earlier work
substance,measurement,setting,value
ivermectin,"growth of transgenic worms (escape from L1 arrest, L4 and adult worms scored for the transgene)",C. elegans IVR10 strain,no transgenic worms that escaped L1 arrest
same,IVM Drug Phenotype,"Haemonchus contortus; isolate 1202, Brazil",Resistant
same,IVM Drug Phenotype,"Haemonchus contortus; isolate CRA, RSA",Susceptible
same,IVM Drug Phenotype,"Haemonchus contortus; isolate Cedara, RSA",Resistant
same,IVM Drug Phenotype,"Haemonchus contortus; isolate Coruzu, Argentina",Resistant
same,IVM Drug Phenotype,"Haemonchus contortus; isolate F15, Brazil",Resistant
same,IVM Drug Phenotype,"Haemonchus contortus; isolate Haecon, Australia",Resistant
same,IVM Drug Phenotype,"Haemonchus contortus; isolate Howick, RSA",Resistant
same,IVM Drug Phenotype,"Haemonchus contortus; isolate ISE, UK",Susceptible
same,IVM Drug Phenotype,"Haemonchus contortus; isolate Kokstad, RSA",Resistant
same,IVM Drug Phenotype,"Haemonchus contortus; isolate MOF23, USA",Moderate Resistant
same,IVM Drug Phenotype,"Haemonchus contortus; isolate MOF23-9*, USA, 23 generations of moxidectin selection",Resistant
same,IVM Drug Phenotype,"Haemonchus contortus; isolate PF23, USA",Susceptible
same,IVM Drug Phenotype,"Haemonchus contortus; isolate PF23-24, USA",Susceptible
same,IVM Drug Phenotype,"Haemonchus contortus; isolate Rog-gliswil, Switzerland",Resistant
same,IVM Drug Phenotype,"Haemonchus contortus; isolate SUL, Uruguay",Resistant
same,IVM Drug Phenotype,"Haemonchus contortus; isolate Sorin, France",Susceptible
same,IVM Drug Phenotype,"Haemonchus contortus; isolate Wallangra 85, Australia",Susceptible
same,IVM Drug Phenotype,"Haemonchus contortus; isolate Yallanbee, Australia",Susceptible
same,IVM phenotype of the strain,"Haemonchus contortus; strain IVF23, ivermectin selected from the PF strain",resistant
